Data set [1] is described as follows: Fibril formation of crude library peptides (Thioflavin T). It counts as physicochemical. On the set-up: key: average ThT fluorescence emission at 480 nm (ex 450 nm), raw units. As to conditions: Physical stability of peptides. In short, it runs like this:
(§1)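 Values reflect mean ThT emission (ex 450, em 480 nm) over 72 h at 40° C, read every 10 min after 5 min shaking at 700 rpm, plus a single initial absorbance at 600 nm for turbidity. Peptides were at 267 μM, pH 4.0 acetate or pH 7.0 phosphate (50 mM), with 4 μM ThT.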

For another data set, the target named is SCTR (Homo sapiens, UniProt P47872). Briefly: hSCTR potency, cAMP accumulation in CHO-K1 cells stably overexpressing hSCTR. As to conditions: cAMP accumulation, CHO-K1 cells overexpressing hSCTR; read-out: hSCTR pEC50 (converted). It counts as cell-based. On the set-up: alternatively Euroscreen ES-712-AF; FAST-0161L; host or cells: CHO-K1. In short, it runs like this: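 Potency reflects cAMP accumulation after 30 min agonist exposure at room temperature in hSCTR-expressing CHO-K1 cells, with 0.5 mM IBMX present to block phosphodiesterase. EC50 was derived by nonlinear regression.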

The nature of data set [2]: Turbidity of crude library peptides (absorbance at 600 nm). It counts as physicochemical. As to conditions: Physical stability of peptides. Put shortly:
as §1

The target of a further data set is GLP1R (Homo sapiens, UniProt P43220). In words: hGLP1R potency, cAMP accumulation in CHO-K1 cells stably overexpressing hGLP1R. It counts as cell-based. On the set-up: host or cells: CHO-K1. As to conditions: for EC50: cAMP accumulation, CHO-K1 cells overexpressing hGLP1R, read-out: hGLP1R pEC50 (converted); for SCTR EC50/GLP1R EC50 ratio: selectivity for hGLP1R over hSCTR, cAMP accumulation in CHO-K1 cells. In short, it runs like this:
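Potency reflects cAMP accumulation measured by time-resolved fluorescence energy transfer after a 30 min room-temperature stimulation in IBMX-containing (0.5 mM) DPBS with casein. Purified peptides were tested in duplicate over eleven threefold dilutions, and EC50 was obtained from sigmoid concentration-response fitting.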

Numbered stars: 1 amine (or outer) side, 2 acyl side, 3 side chain; on linkers, the order of the positions; unused ones are H or OH. Square brackets hold non-standard residues; d marks the D form. Side chains are listed from the residue outwards. Peptide text beside a SMILES is read from it. * marks the point of attachment. C20 diacid = O=C(O)CCCCCCCCCCCCCCCCCCC(=O)*; γGlu = O=C(O)[C@H](CCC(=O)[*:2])N[*:1]; AEEA = NCCOCCOCC(=O)O; Aib = CC(C)(N)C(=O)O

Chain of SCTR (P47872 23-440): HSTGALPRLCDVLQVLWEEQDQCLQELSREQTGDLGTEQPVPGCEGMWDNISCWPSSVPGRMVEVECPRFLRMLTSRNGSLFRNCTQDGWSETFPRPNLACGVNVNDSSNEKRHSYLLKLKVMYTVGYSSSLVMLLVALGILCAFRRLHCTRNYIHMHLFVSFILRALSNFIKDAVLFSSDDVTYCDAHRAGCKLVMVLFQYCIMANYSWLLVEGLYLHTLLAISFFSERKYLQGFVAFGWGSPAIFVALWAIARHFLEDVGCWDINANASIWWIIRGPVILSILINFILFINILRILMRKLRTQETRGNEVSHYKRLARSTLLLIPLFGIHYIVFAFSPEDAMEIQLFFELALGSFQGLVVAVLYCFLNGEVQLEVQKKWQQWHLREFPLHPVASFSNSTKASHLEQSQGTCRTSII
Chain of GLP1R (P43220 24-463): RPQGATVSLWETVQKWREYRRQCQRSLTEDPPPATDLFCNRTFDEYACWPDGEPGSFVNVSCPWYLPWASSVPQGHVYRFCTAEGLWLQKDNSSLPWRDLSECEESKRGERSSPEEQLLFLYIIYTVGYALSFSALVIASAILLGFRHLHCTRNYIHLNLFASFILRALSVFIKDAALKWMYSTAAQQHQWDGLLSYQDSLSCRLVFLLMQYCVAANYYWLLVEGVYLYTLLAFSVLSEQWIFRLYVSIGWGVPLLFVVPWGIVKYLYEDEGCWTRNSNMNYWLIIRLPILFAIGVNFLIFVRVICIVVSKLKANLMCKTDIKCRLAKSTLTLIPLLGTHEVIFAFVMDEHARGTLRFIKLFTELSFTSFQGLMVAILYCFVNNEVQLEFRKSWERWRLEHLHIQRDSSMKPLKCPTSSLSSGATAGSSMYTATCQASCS

Compound `CC(C)C[C@H](NC(=O)[C@H](Cc1ccccc1)NC(=O)[C@H](CCCNC(=N)N)NC(=O)[C@H](CCC(N)=O)NC(=O)[C@H](CC(C)C)NC(=O)C(C)(C)NC(=O)[C@H](C)NC(=O)[C@H](CCC(=O)O)NC(=O)[C@H](CCC(=O)O)NC(=O)[C@H](CCCCNC(=O)COCCOCCNC(=O)COCCOCCNC(=O)CC[C@H](NC(=O)CCCCCCCCCCCCCCCCCCC(=O)O)C(=O)O)NC(=O)[C@H](CC(C)C)NC(=O)[C@H](CC(C)C)NC(=O)[C@H](CO)NC(=O)[C@@H](NC(=O)[C@H](CC(=O)O)NC(=O)[C@H](CO)NC(=O)[C@@H](NC(=O)[C@H](Cc1ccccc1)NC(=O)[C@@H](NC(=O)CNC(=O)[C@H](CCC(=O)O)NC(=O)C(C)(C)NC(=O)[C@@H](N)Cc1c[nH]cn1)[C@@H](C)O)[C@@H](C)O)C(C)C)C(=O)N[C@@H](CCC(=O)O)C(=O)N[C@@H](Cc1c[nH]cn1)C(=O)N[C@@H](CC(C)C)C(=O)N[C@H](C(N)=O)C(C)C` [compound 149] (H-H[Aib]EGTFTSDVSLLK([AEEA-AEEA-γGlu-C20 diacid])EEA[Aib]LQRFLEHLV-NH2) gave a Fibril formation in data set [1] of 2878. Further, on SCTR, the EC50 is 31.6 nM. The “Turbidity (pH 7)” value in data set [2] came to 0.08. On GLP1R, the EC50 was 0.0126 nM and the “SCTR EC50/GLP1R EC50 ratio” value was 2619.
In the case of `CC(C)C[C@H](NC(=O)[C@H](Cc1ccccc1)NC(=O)[C@H](CCCNC(=N)N)NC(=O)[C@H](CCC(N)=O)NC(=O)[C@H](CCC(=O)O)NC(=O)C(C)(C)NC(=O)[C@H](C)NC(=O)[C@H](CCC(=O)O)NC(=O)[C@H](CCC(=O)O)NC(=O)[C@H](CCCCNC(=O)COCCOCCNC(=O)COCCOCCNC(=O)CC[C@H](NC(=O)CCCCCCCCCCCCCCCCCCC(=O)O)C(=O)O)NC(=O)[C@H](CC(C)C)NC(=O)[C@H](Cc1ccc(O)cc1)NC(=O)[C@H](CO)NC(=O)[C@@H](NC(=O)[C@H](CC(=O)O)NC(=O)[C@H](CO)NC(=O)[C@@H](NC(=O)[C@H](Cc1ccccc1)NC(=O)[C@@H](NC(=O)CNC(=O)[C@H](CCC(=O)O)NC(=O)C(C)(C)NC(=O)[C@@H](N)Cc1c[nH]cn1)[C@@H](C)O)[C@@H](C)O)C(C)C)C(=O)N[C@@H](CCC(=O)O)C(=O)N[C@@H](Cc1c[nH]cn1)C(=O)N[C@@H](CC(C)C)C(=O)N[C@H](C(N)=O)C(C)C` [compound 150] (H-H[Aib]EGTFTSDVSYLK([AEEA-AEEA-γGlu-C20 diacid])EEA[Aib]EQRFLEHLV-NH2), the Fibril formation in data set [1] amounted to 2766. The EC50 is 3160 nM on SCTR and 0.00501 nM at GLP1R. Also, the “Turbidity (pH 7)” value in data set [2] is 0.08. The “SCTR EC50/GLP1R EC50 ratio” value on GLP1R was 693266.
As for `CC(C)C[C@H](NC(=O)[C@H](Cc1ccccc1)NC(=O)[C@H](CCCNC(=N)N)NC(=O)[C@H](CCC(N)=O)NC(=O)[C@H](CC(C)C)NC(=O)C(C)(C)NC(=O)[C@H](C)NC(=O)[C@H](CCC(=O)O)NC(=O)[C@H](CCC(=O)O)NC(=O)[C@H](CCCCNC(=O)COCCOCCNC(=O)COCCOCCNC(=O)CC[C@H](NC(=O)CCCCCCCCCCCCCCCCCCC(=O)O)C(=O)O)NC(=O)[C@H](CC(C)C)NC(=O)[C@H](Cc1ccc(O)cc1)NC(=O)[C@H](CO)NC(=O)[C@@H](NC(=O)[C@H](CC(=O)O)NC(=O)[C@H](CO)NC(=O)[C@@H](NC(=O)[C@H](Cc1ccccc1)NC(=O)[C@@H](NC(=O)CNC(=O)[C@H](CCC(=O)O)NC(=O)C(C)(C)NC(=O)[C@@H](N)Cc1c[nH]cn1)[C@@H](C)O)[C@@H](C)O)C(C)C)C(=O)N[C@@H](CCC(=O)O)C(=O)N[C@@H](CCC(=O)O)C(=O)N[C@@H](CC(C)C)C(=O)N[C@H](C(N)=O)C(C)C` [compound 151] (H-H[Aib]EGTFTSDVSYLK([AEEA-AEEA-γGlu-C20 diacid])EEA[Aib]LQRFLEELV-NH2), the Fibril formation in data set [1] is 3061. Besides, on SCTR, the EC50 was 126 nM. Besides, in data set [2], the “Turbidity (pH 7)” value came to 0.08. At GLP1R, the EC50 is 0.0251 nM and the “SCTR EC50/GLP1R EC50 ratio” value is recorded as 5170.

The values are drawn from US20260201008A1, “SECRETIN-DERIVED GLP1R SELECTIVE AGONISTS” (GUBRA A/S, priority 2023, published 2026).
